Measured values from PMC5278707, “Structure-Activity Relationships of a Series of Echinocandins and the Discovery of CD101, a Highly Stable and Soluble Echinocandin with Distinctive Pharmacokinetic Properties” (Antimicrobial Agents and Chemotherapy, 2017).
Converted amounts (≈) assume the structure as drawn. Like-named read-outs stand apart in the source and are kept apart here. One block for each compound: values may come before it.

Columns and labels:
[1] = tested on: Aspergillus fumigatus ATCC 204305; assay: CLSI broth microdilution (M38-A2) MEC/MIC; format: cell-based; settings: 48 h, stunted hyphal growth
Description: (§1) All yeast and mold isolates were obtained from the American Type Culture Collection (ATCC). Isolates were plated on an agar medium to verify purity, and single colonies were picked. Aspergillus isolates were resubcultured on potato dextrose slants and incubated for 7 days at 35°C. Candida isolates were streaked on SDA plates and incubated for 24 h at 35°C. RPMI 1640 medium (HyClone Laboratories, Logan, UT) and the inoculum for each organism were prepared according to Clinical and Laboratory Standards Institute (CLSI) guidelines ([27][–][29]). Stock solutions for all test articles were prepared in 100% dimethyl sulfoxide (DMSO). Susceptibility testing was performed using CLSI broth microdilution methods for Candida (M27-A3) and Aspergillus (M38-A2). Amphotericin B was tested at a range of 0.06 to 64 μg/ml; all other antifungal agents were tested at 0.015 to 16 μg/ml. Plates were incubated at 35°C and were read from the bottom using a plate viewer after 24 and 48 h for Candida and after 48 h for Aspergillus. MIC values are reported as the lowest drug concentration to yield a 50% reduction in the growth of Candida species tested compared to the control well. Minimum effective concentration (MEC) values are reported as the lowest drug concentration to yield the stunted hyphal growth of Aspergillus species tested compared to that of the control well.

[2] = tested on: Aspergillus ochraceus ATCC 96919; assay: CLSI broth microdilution (M38-A2) MEC/MIC; format: cell-based; settings: 48 h, stunted hyphal growth
Description: as §1

[3] = tested on: Aspergillus niger ATCC 16888; assay: CLSI broth microdilution (M38-A2) MEC/MIC; format: cell-based; settings: 48 h, stunted hyphal growth
Description: as §1

[4] = tested on: Aspergillus candidus ATCC 13686; assay: CLSI broth microdilution (M38-A2) MEC/MIC; format: cell-based; settings: 48 h, stunted hyphal growth
Description: as §1

[5] = tested on: Aspergillus flavus ATCC 22546; assay: CLSI broth microdilution (M38-A2) MEC/MIC; format: cell-based; settings: 48 h, stunted hyphal growth
Description: as §1

[6] = tested on: Aspergillus fumigatus ATCC MYA-3626; assay: CLSI broth microdilution (M38-A2) MEC/MIC; format: cell-based; settings: 48 h, stunted hyphal growth
Description: as §1

[7] = tested on: Aspergillus spp.; assay: CLSI broth microdilution (M38-A2) MEC, whole panel; format: cell-based; settings: 48 h, summary of Table 3
Description: as §1

[8] = tested on: Aspergillus clavatus ATCC 10058; assay: CLSI broth microdilution (M38-A2) MEC/MIC; format: cell-based; settings: read at 68 h, stunted hyphal growth
Description: as §1, with “Plates were incubated at 35°C and were read from the bottom using a plate viewer after 24 and 48 h for Candida and after 48 h for Aspergillus.” left out

[9] = tested on: Candida lusitaniae ATCC 34134; assay: CLSI broth microdilution (M27-A3) MIC; format: cell-based; settings: Clavispora lusitaniae, ATCC34134, 50% reduction in growth, read-out: MIC
Description: as §1

[10] = tested on: Candida parapsilosis ATCC 22019; assay: CLSI broth microdilution (M27-A3) MIC; format: cell-based; settings: Lodderomyces parapsilosis, ATCC22019, 50% reduction in growth
Description: as §1

[11] = tested on: Candida tropicalis ATCC 90874; assay: CLSI broth microdilution (M27-A3) MIC; format: cell-based; settings: 50% reduction in growth
Description: as §1

[12] = tested on: Candida guilliermondii ATCC 34134; assay: CLSI broth microdilution (M27-A3) MIC; format: cell-based; settings: Meyerozyma guilliermondii, ATCC34134, 50% reduction in growth
Description: as §1

[13] = tested on: Candida krusei ATCC 14243; assay: CLSI broth microdilution (M27-A3) MIC; format: cell-based; settings: Pichia kudriavzevii, ATCC14243, 50% reduction in growth
Description: as §1

[14] = tested on: Candida glabrata ATCC 90030; assay: CLSI broth microdilution (M27-A3) MIC; format: cell-based; settings: Nakaseomyces glabratus
Description: as §1

[15] = tested on: Candida albicans ATCC 90028; assay: CLSI broth microdilution (M27-A3) MIC; format: cell-based; settings: 50% reduction in growth
Description: as §1

[16] = tested on: Candida albicans R303; assay: mouse model of disseminated candidiasis, fungal burden in kidneys; format: in vivo; settings: kidneys at 24 h
Description: Candida albicans R303 was grown on Sabouraud dextrose agar (SDA) plates for 24 h at 35°C. Colonies were transferred to phosphate-buffered saline (PBS) and diluted to 3.8 × 10^5 CFU/ml. Female CD-1 mice (Charles River Laboratories, Portage, MI) were rendered neutropenic via injection with cyclophosphamide (150 mg/kg) 5 days and 2 days prior to inoculation. Each animal was infected by injecting 0.1 ml of inoculum into the tail vein. In the treatment groups, animals received 0.5, 1.5, or 4.5 mg/kg of test article 2 h after inoculation. Two groups of untreated, infected controls were used to evaluate fungal burden: at 2 h when test articles were administered in the treatment groups and at 24 h when the treatment groups were sacrificed. Kidneys were harvested at 2 h in one untreated control group and at 24 h in all other groups. The kidneys were homogenized in 2 ml of sterile phosphate-buffered saline, and 0.1-ml aliquots were spread on SDA plates and incubated at 35°C overnight. Fungal burden was determined based on the log10 C. albicans CFU counts from paired kidneys. Data were analyzed using a one-way analysis of variance (ANOVA) and the Dunnett multiple comparisons test comparing the test articles to the infected control group (GraphPad InStat version 3.1; GraphPad Software, San Diego, CA).

[17] = single-dose pharmacokinetics in beagle dogs; settings: male, beagle, dog, in vivo, iv, 1.4 mg/kg
Description: Four male, nonnaive beagle dogs received a single i.v. infusion (1.4 mg/kg) of test article over 10 min via a catheter placed in the cephalic vein. Blood draws (1.0 ml) were taken at 0.083, 0.33, 0.75, 1.5, 4.5, 12, 24, and 48 h. An additional blood draw at 72 h was obtained for CD101. Blood draws were taken from the jugular vein and were collected into K3 EDTA tubes. Following blood collection, the samples were immediately inverted several times and were held on wet ice pending centrifugation. The samples were centrifuged within ∼30 min of collection under refrigeration (∼5°C for ∼10 min at ∼2,000 g) to obtain plasma. The plasma samples were frozen immediately on dry ice after separation and were stored at approximately −70°C until analysis. Levels of test article in the plasma samples were measured by quantitative liquid chromatography-tandem mass spectrometry (LC-MS/MS) analysis compared to a calibration curve and an internal standard. Pharmacokinetic parameters were calculated from the plasma concentration-time data using standard noncompartmental methods and utilizing WinNonlin analysis software.

SMILES: CC[C@H](C)C[C@H](C)CCCCCCCCC(=O)N[C@H]1C[C@@H](O)[C@@H](NCCN)NC(=O)[C@@H]2[C@@H](O)CCN2C(=O)[C@H]([C@H](O)CCN)NC(=O)[C@H]([C@H](O)[C@@H](O)c2ccc(O)cc2)NC(=O)[C@@H]2C[C@@H](O)CN2C(=O)[C@H]([C@@H](C)O)NC1=O [Caspofungin, caspofungin]
- MEC [1]: 0.125 µg/mL
- MEC [2]: 0.06 µg/mL
- MEC [3]: 0.06 µg/mL
- MEC [4]: ≤0.015 µg/mL
- MEC [5]: 0.06 µg/mL
- MEC [6]: 0.125 µg/mL
- MEC values against all Aspergillus species tested [7]: ≤ 0.125 µg/mL
- MEC [8]: 0.125 µg/mL
- MIC ([9]; 24 h): 0.25 µg/mL (≈ 0.229 µM)
- MIC ([9]; 48 h): 0.25 µg/mL (≈ 0.229 µM)
- MIC ([10]; 24 h): 0.25 µg/mL (≈ 0.229 µM)
- MIC ([10]; 48 h): 0.5 µg/mL (≈ 0.457 µM)
- MIC ([11]; ATCC90874, 24 h): 0.06 µg/mL (≈ 0.0549 µM)
- MIC ([11]; ATCC90874, 48 h): 0.06 µg/mL (≈ 0.0549 µM)
- MIC ([12]; 24 h): 0.25 µg/mL (≈ 0.229 µM)
- MIC ([12]; 48 h): > 16 µg/mL
- MIC ([13]; 24 h): 0.25 µg/mL (≈ 0.229 µM)
- MIC ([13]; 48 h): 0.5 µg/mL (≈ 0.457 µM)
- MIC ([14]; ATCC90030, 24 h): 0.125 µg/mL (≈ 0.114 µM)
- MIC ([14]; ATCC90030, 48 h): 0.125 µg/mL (≈ 0.114 µM)
- MIC ([15]; ATCC90028, 24 h): 0.06 µg/mL (≈ 0.0549 µM)
- MIC ([15]; ATCC90028, 48 h): 0.06 µg/mL (≈ 0.0549 µM)

- Vd [17]: 0.687 L/kg
- half-life [17]: 21 h
SMILES: CCCCCOc1ccc(-c2ccc(-c3ccc(C(=O)N[C@H]4C[C@@H](O)[C@@H](NCCNCCO)NC(=O)[C@@H]5[C@@H](O)[C@@H](C)CN5C(=O)[C@H]([C@@H](C)O)NC(=O)[C@H]([C@H](O)[C@@H](O)c5ccc(O)cc5)NC(=O)[C@@H]5C[C@@H](O)CN5C(=O)[C@H]([C@@H](C)O)NC4=O)cc3)cc2)cc1 [Compound 5]
- reductions in fungal burden vs infected control (statistical significance) ([16]; neutropenic CD-1 mice, 0.5, 1.5 or 4.5 mg/kg 2 h after inoculation): statistically significant (P < 0.01) reductions in fungal burden at all doses
- fungal burden relative to limit of detection ([16]; neutropenic CD-1 mice, 0.5, 1.5 or 4.5 mg/kg): below the limit of detection for at least one of the doses

- Vd [17]: 0.331 L/kg
- half-life [17]: 18.9 h
SMILES: CCCCCOc1ccc(-c2ccc(-c3ccc(C(=O)N[C@H]4C[C@@H](O)[C@@H](OCCOCCOC)NC(=O)[C@@H]5[C@@H](O)[C@@H](C)CN5C(=O)[C@H]([C@@H](C)O)NC(=O)[C@H]([C@H](O)[C@@H](O)c5ccc(O)cc5)NC(=O)[C@@H]5C[C@@H](O)CN5C(=O)[C@H]([C@@H](C)O)NC4=O)cc3)cc2)cc1 [Compound 2]
